What was measured:
[1] = test system: db/db mice; assay: Hypoglycemic activity in mice; assay type: in vivo; conditions: for inhibition in vivo at 30 mg/kg: 30 mg/kg once a day for four consecutive days; for inhibition in vivo at 3 mg/kg: 3 mg/kg once a day for four consecutive days
Protocol: Hypoglycemic Activity in Mice
Test compounds were suspended in 0.5% Methyl cellulose solution and administered (p.o.) to db/db mice (obtained from Nihon Clea) at a range of 3-30 mg/kg once a day for four consecutive days. Troglitazone (300 mg/kg) was also administrated for control.

[2] = Mus musculus, po, 10 mg/kg once a day for four consecutive days, suspended in 0.5% methyl cellulose
[3] = Mus musculus, po, suspended in 0.5% methyl cellulose

Compound | inhibition in vivo at 10 mg/kg [1, 2] | melting point | other results
4-[2-(5-Methyl-2-phenyl-1,3-oxazole-4-yl)ethoxy]benzene trifluoromethyl sulfonamide [Compound 2] | – | – | Hypoglycemic activity (%) ([1]; p.o., 10 mg/kg once a day for four consecutive days, suspended in 0.5% methyl cellulose): 49.0%
Cc1oc(-c2ccccc2)nc1CCOc1ccc(NC(=O)C(=O)O)cc1 [Compound 8, 2-[4-(2-(5-Methyl-2-phenyl-1,3-oxazole-4-yl)ethoxy)phenyl]amino-2-oxo-acetic acid] | 26% | 196 to 198 °C | –
Cc1oc(-c2ccccc2)nc1CCOc1ccc(CNS(=O)(=O)C(F)(F)F)cc1 [Compound 9, 2-[4-(2-(5-Methyl-2-phenyl-1,3-oxazole-4-yl)ethoxy)benzyl]trifluoromethylsulfonamide] | 24% | 113 to 115 °C | –
CCc1ccc(CCOc2ccc(NS(=O)(=O)C(F)(F)F)cc2)nc1 [Compound 10, 4-[2-(5-Ethylpyridine-2-yl)ethoxy]benzene trifluoromethylsulfonamide] | 32.4% | 76 to 78 °C | –
CN(CCOc1ccc(NS(=O)(=O)C(F)(F)F)cc1)c1ccccn1 [Compound 11, 4-[2-(N-Methyl-N-2-pyridyl)aminoethoxy]benzene trifluoromethanesulfonamide] | 15.4% | – | –
COc1ccc(-c2nc(CCOc3ccc(NS(=O)(=O)C(F)(F)F)cc3)c(C)o2)cc1 [Compound 18] | 34.7% | – | –
Cc1oc(-c2cc(C(C)(C)C)c(O)c(C(C)(C)C)c2)nc1CCOc1ccc(NS(=O)(=O)C(F)(F)F)cc1 [Compound 19] | 12.8% | – | –
COC(=O)c1ccc(OCCc2nc(-c3ccccc3)oc2C)cc1O [Compound 25, 2-Hydroxy-4-[2-(5-methyl-2-phenyl-1,3-oxazole-4-yl)ethoxy]benzoic acid methyl ester] | – | 133 to 134 °C | –
CCOc1cc(OCCc2nc(-c3ccccc3)oc2C)ccc1C(=O)O [Compound 31, 2-Ethoxy-4-[2-(5-methyl-2-phenyl-1,3-oxazole-4-yl)ethoxy]benzoic acid] | – | – | inhibition in vivo at 30 mg/kg [1, 3]: 19%
CCOc1cc(OCCc2nc(-c3ccccc3)oc2C)ccc1NS(=O)(=O)C(F)(F)F [Compound 40] | – | 133 to 135 °C | inhibition in vivo at 30 mg/kg [1, 3]: 53.4%
Cc1oc(-c2ccccc2)nc1CCOc1ccc(NS(=O)(=O)C(F)(F)F)c(O)c1 [Compound 42] | 29.6% | – | –
Cc1oc(-c2ccccc2)nc1CC(=O)Nc1ccc(NS(=O)(=O)C(F)(F)F)cc1 [Compound 48] | – | 147 to 149 °C | inhibition in vivo at 30 mg/kg [1, 3]: 65.4%
Cc1oc(-c2ccccc2)nc1CC(=O)Nc1ccc(C(=O)O)c(O)c1 [Compound 52] | – | – | inhibition in vivo at 30 mg/kg [1, 3]: 10.5%
Cc1oc(-c2ccc(Cl)cc2)nc1CCOc1ccc(NS(=O)(=O)C(F)(F)F)cc1 [Compound 58] | – | – | inhibition in vivo at 3 mg/kg [1, 3]: 43.4%
Cc1oc(-c2ccc(F)cc2)nc1CCOc1ccc(NS(=O)(=O)C(F)(F)F)cc1 [Compound 59] | – | – | inhibition in vivo at 3 mg/kg [1, 3]: 18.4%
Cc1oc(-c2ccc(OCC(=O)O)cc2)nc1CCOc1ccc(NS(=O)(=O)C(F)(F)F)cc1 [Compound 67] | – | 167 to 168 °C | inhibition in vivo at 3 mg/kg [1, 3]: 33.1%
Cc1oc(-c2cc(C(C)(C)C)c(OCC(=O)O)c(C(C)(C)C)c2)nc1CCOc1ccc(NS(=O)(=O)C(F)(F)F)cc1 [Compound 68] | – | – | inhibition in vivo at 3 mg/kg [1, 3]: 21.2%
Cc1oc(-c2ccc(O)c(C(C)(C)C)c2)nc1CCOc1ccc(NS(=O)(=O)C(F)(F)F)cc1 [Compound 70] | – | – | inhibition in vivo at 30 mg/kg [1, 3]: 51%
Cc1c(C)c2c(c(C)c1O)CCC(C)(COc1ccc(CC3SC(=O)NC3=O)cc1)O2 (stereo not shown) [Troglitazone, reference compound] | – | – | inhibition in vivo at 300 mg/kg ([1]; Mus musculus, po, 300 mg/kg, control drug): 34%

— patent US6414001B2, “Ether and amide compounds preparation thereof composition containing same and use thereof as antidiadetics” (Kotobuki Pharmaceutical Co. Ltd., priority 2000, dated 2002)
